Data: PMC10229426, “An optimized bioluminescent substrate for non-invasive imaging in the brain” (Nature Chemical Biology, 2023)
“Also recorded” adds a separate entry of the source.

What was measured:
[1] = biological target: Antares (Oplophorus gracilirostris, UniProt Q9GV45, A31E/A60N/A81I/F95D/I117V/K70R/L54V/L99Q/M102K/N193R/P142E/Q151K/Q38R/Q45L/V71I/Y165I); assay: Enzymatic analysis of Antares and Fz analogs; type: biochemical; set-up: His tag (inferred from purification on HisLink resin); made in house; host or cells: Escherichia coli; details: for Relative kcat: relative to Fz
Chain of Antares (Q9GV45 other isoform, or with tags, fused parts or gaps with the stated changes): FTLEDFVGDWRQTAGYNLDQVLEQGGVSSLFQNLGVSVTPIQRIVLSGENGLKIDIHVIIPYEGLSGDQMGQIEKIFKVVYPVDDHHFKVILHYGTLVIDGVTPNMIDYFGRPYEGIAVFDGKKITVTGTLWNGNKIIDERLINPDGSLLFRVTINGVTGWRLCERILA
Procedure: Two milliliters of LB broth with 100 µg ml^–1 ampicillin was inoculated with a single colony of clone ATG-3802 (Antares codon optimized for Escherichia coli) and grown overnight at 37 °C. On the following day, the overnight culture was diluted 1:100 into a flask containing 50 ml of Terrific Broth and 100 µg ml^–1 ampicillin. The sample was grown at 37 °C with shaking (275 r.p.m.) for 4 h. The culture was chilled on ice, and 1% rhamnose was added to induce protein expression. The culture was placed in a 15 °C shaker (275 r.p.m.) and grown for 48 h. Cells were collected by centrifugation and resuspended in 10 ml of 100 mM HEPES (pH 7.5), 150 mM NaCl, 10 mM imidazole and 1 mg ml^–1 lysozyme. The resuspended cells were sonicated on ice (5 s on, 5 s off for 2 min, 12 amplitude). The sample was centrifuged (12,000g for 15 min), and 1 ml of HisLink resin (Promega) was added to the cleared lysate. Samples were incubated at 4 °C on an orbital mixer for 2 h. After incubation, the resin was washed three times with HisLink wash buffer (Promega). After the final wash, the sample was eluted (incubated 3 min with mixing) two times with 1 ml of HisLink elution buffer (Promega). The sample was dialyzed (10-kDa molecular weight cutoff, Thermo Fisher Slide-A-Lyzer) for 24 h in TBS and 50% glycerol.
To quantify luminescence as a function of substrate concentration, substrates were diluted to 30 μM and serially diluted in twofold steps into DPBS with 0.01% BSA in triplicate. Fifty microliters of each substrate dilution was then mixed with 50 μl of a solution of 20 pM Antares protein in DPBS with 0.01% BSA. Luminescence was measured immediately using a GloMax-Multi+ luminometer (Promega). Km and Vmax were then calculated using the Michaelis–Menten non-linear regression function in the program Prism (GraphPad).

[2] = biological target: T1, Antares luciferase (Oplophorus gracilirostris, UniProt Q9GV45, A31E/A60N/A81I/F95D/I117V/K70R/L54V/L99Q/M102K/N193R/P142E/Q151K/Q38R/Q45L/V71I/Y165I); assay: Bioluminescence imaging of transgenic mice for substrate comparison (brain, Cre-driven Antares); type: in vivo, mouse
T1 construct: expressed in transfected cells; host or cells: transgenic mice with CAG-LSL-Antares at the H11 locus, crossed to Cre driver lines (neurons or liver)
T1 sequence (Q9GV45 other isoform, or with tags, fused parts or gaps with the stated changes): as above
Description: Transgenic reporter mice with LSL-CAG-luciferase (Antares, FLuc or AkaLuc) inserted at the H11 locus (H11P) were generated by φC31-mediated recombination in blastocysts[48] by the Stanford Transgenic, Knockout and Tumor Model Center. For substrate comparisons, 2- to 4-month-old transgenic mice doubly hemizygous for a Camk2a-cre (Jackson Laboratory, 005359), Vgat-IRES-cre (Jackson Laboratory), Vglut2-IRES-cre (Jackson Laboratory, 016963) or Alb-cre (Jackson Laboratory, 003574) driver and a CAG-LSL-Antares, CAG-LSL-AkaLuc or CAG-LSL-FLuc reporter were anesthetized by inhalation of isoflurane for 5 min. An electric shaver was used to remove scalp hair in Camk2a-cre, Vglut2-IRES-cre or Vgat-IRES-cre mice or abdominal hair in Alb-cre mice. Nair depilatory cream (Church and Dwight) was then applied to the shaved area for 1 min, and remaining hair was removed with a piece of sterile gauze. The area was then rinsed with DPBS and cleaned with 70% ethanol with a piece of sterile gauze.
For mice expressing Antares, indicated amounts of Fz were dissolved in 480 µl of a PEG-300-based formulation consisting of 10% glycerol, 10% ethanol, 10% hydroxypropylcyclodextrin and 35% PEG-300 in water, or indicated amounts of lyophilized Fz analogs with P-407 vehicle were reconstituted in 150–500 µl of DPBS buffer. For mice expressing FLuc, indicated amounts of D-luciferin were dissolved in PBS. For mice expressing AkaLuc, 3 μmol (1.0 mg) of AkaLumine-HCl (Sigma-Aldrich) was dissolved in 150 μl of 0.9% NaCl. Substrates were then injected into the peritoneal cavity in the left lower quadrant, with the maximum injectable volume at 480 µl. Immediately after substrate injection, bioluminescent images were acquired in an Ami HT bioluminescence imaging system running Aura software version 3.1 or 4.0 (Spectral Instruments Imaging) for 15–30 min at intervals of 1 min. For comparing substrates at 1.3 µmol, the following imager settings were used: emission filter open, field of view of 25 cm, f-stop of 1.2, binning of 2 × 2 and exposure time of 2 s. For comparison with >1.3-µmol substrates, the following settings were used: emission filter open, field of view of 25 cm, f-stop of 1.2, binning of 1 × 1 and exposure time of 1 s. Pseudocolor images and intensity scale bars were generated with Aura software. Integrated luminescence was quantified using the Fiji version of the ImageJ program (NIH)[49], with further statistical analysis performed in GraphPad Prism (version 9.0.0).

[3] = Solubility in aqueous formulation with poloxamer-407 (P-407); type: physicochemical
Procedure: Stock samples of solid formulated Fz analogs were prepared using the following protocol. First, P-407 (Pluronic F127) was placed into a screw-cap glass vial. The polymer was then heated to 75 °C in a water bath until melted. Fz analogs dissolved in ethanol were added to the hot polymer, mixing well with a thin spatula. Additional rinses of Fz analogs in ethanol were added to the hot polymer for quantitative transfer. The solvent was then removed under vacuum. This concentrated sample was diluted with water to make a dispensing mixture of 4–9 mM Fz analogs in water. Next, this aqueous stock was aliquoted into glass vials, frozen and lyophilized overnight to give a yellow cake. For i.p. injection into mice, DPBS (Corning, 21-031-CV) was added to the vial and rocked to create a clear solution.

Compound | Km [1] [µM] | Relative kcat [1] | brain signal distribution ([2]; Antares driven by Camk2a-cre) | brain signal distribution ([2]; i.p., CAG-LSL-Antares x Vgat-IRES-cre mice) | solubility of 1.3 μmol in P-407 formulation ([3]; 1.3 μmol) | brain brightness relative to Fz ([2]; 1.3 µmol i.p., Antares driven by Vglut2-IRES-cre or Camk2a-cre, listed as CFz) | peak light production in the brain relative to Fz ([2]; 1.3 μmol i.p., CAG-LSL-Antares x Vgat-IRES-cre) | brain bioluminescence of 4.2 µmol dose relative to 1.3-μmol dose ([2]; 4.2 µmol CFz with 20 mg P-407, i.p.) [fold] | peak brain signal relative to AkaLuc with AkaLumine ([2]; Antares with 1.3 µmol CFz vs AkaLuc with 3.0 µmol AkaLumine, i.p., Vgat-cre or Camk2a-cre double hemizygotes, listed as CFz) | kinetics of brain signal relative to AkaLuc–AkaLumine ([2]; Antares–CFz) | signal from the brain relative to D-luciferin with firefly luciferase ([2]; CFz paired with Antares) | solubilization of 4.2 µmol in P-407 formulation ([3]; 4.2 µmol)
O=c1c(Cc2ccco2)nc2c(Cc3ccccc3)[nH]c(-c3ccccc3)cn1-2 [Fz, furimazine, reference compound] | 0.38 | 1.0 | expected forebrain-enriched signal | signal from both the forebrain and hindbrain | not soluble in P-407 | – | – | – | – | – | – | –
O=c1c(Cc2ccco2)nc2c(Cc3ccccc3)[nH]c(-c3cccc(F)c3F)cn1-2 [compound 6, cephalofurimazine] | 0.47 | 1.33 | – | – | – | at least 2.5 fold | significantly brighter | 6.5 | matches AkaLuc–AkaLumine/TokeOni in brightness; also recorded: comparable peak signal | rise and decay more quickly | greater than 20 fold | a small amount of CFz residue already remained with 20 mg of P-407 but not 30 mg
